Reference: a compilation of properties of binary mixtures (doi:10.1021/je800965t)

Assay: xn = mol fraction of the nth substance listed
Settings: 101 kPa

Compound `O` + CCCn1cc[n+](C)c1C.F[B-](F)(F)F has a viscosity (298.15 K, x1 = 1) of 0.89 mPa·s, a viscosity (303.15 K, x1 = 1) of 0.8 mPa·s and a viscosity (313.15 K, x1 = 1) of 0.65 mPa·s. The viscosity (318.15 K, x1 = 1) was 0.6 mPa·s, the viscosity (323.15 K, x1 = 1) was 0.55 mPa·s and the viscosity (333.15 K, x1 = 1) was 0.47 mPa·s. It also gave a viscosity (343.15 K, x1 = 1) of 0.4 mPa·s.
Work on `CCCn1cc[n+](C)c1C.F[B-](F)(F)F` + O yielded a viscosity (298.15 K, x2 = 0) of 377 mPa·s, a viscosity (298.15 K, x2 = 0.0939) of 225 mPa·s and a viscosity (298.15 K, x2 = 0.2833) of 85.3 mPa·s. The viscosity (298.15 K, x2 = 0.3944) was 50.6 mPa·s, the viscosity (298.15 K, x2 = 0.4987) was 31.29 mPa·s and the viscosity (298.15 K, x2 = 0.5995) was 19.71 mPa·s. The viscosity (298.15 K, x2 = 0.6985) was 12.03 mPa·s, the viscosity (298.15 K, x2 = 0.8009) was 6.69 mPa·s and the viscosity (298.15 K, x2 = 0.8988) was 3.23 mPa·s. The viscosity (303.15 K, x2 = 0) was 272 mPa·s, the viscosity (303.15 K, x2 = 0.0939) was 168 mPa·s and the viscosity (303.15 K, x2 = 0.2833) was 66.8 mPa·s. The viscosity (303.15 K, x2 = 0.5995) was 16.21 mPa·s, the viscosity (303.15 K, x2 = 0.6985) was 10.04 mPa·s and the viscosity (303.15 K, x2 = 0.8009) was 5.67 mPa·s. The viscosity (303.15 K, x2 = 0.8988) was 2.78 mPa·s, the viscosity (308.15 K, x2 = 0) was 202 mPa·s and the viscosity (308.15 K, x2 = 0.0939) was 127.9 mPa·s. It also gave a viscosity (308.15 K, x2 = 0.1932) of 81.1 mPa·s, a viscosity (308.15 K, x2 = 0.4987) of 21.07 mPa·s and a viscosity (308.15 K, x2 = 0.6985) of 8.53 mPa·s. It also gave a viscosity (308.15 K, x2 = 0.8009) of 4.9 mPa·s, a viscosity (308.15 K, x2 = 0.8988) of 2.42 mPa·s and a viscosity (313.15 K, x2 = 0) of 152 mPa·s. For the same compound, the viscosity (313.15 K, x2 = 0.0939) was 99.3 mPa·s, the viscosity (313.15 K, x2 = 0.1932) was 64.5 mPa·s and the viscosity (313.15 K, x2 = 0.2833) was 43.2 mPa·s. For the same compound, the viscosity (313.15 K, x2 = 0.3944) was 27.18 mPa·s, the viscosity (313.15 K, x2 = 0.4987) was 17.63 mPa·s and the viscosity (313.15 K, x2 = 0.5995) was 11.52 mPa·s. For the same compound, the viscosity (313.15 K, x2 = 0.6985) was 7.31 mPa·s, the viscosity (313.15 K, x2 = 0.8009) was 4.23 mPa·s and the viscosity (313.15 K, x2 = 0.8988) was 2.14 mPa·s. For the same compound, the viscosity (318.15 K, x2 = 0) was 117.4 mPa·s, the viscosity (318.15 K, x2 = 0.2833) was 35.71 mPa·s and the viscosity (318.15 K, x2 = 0.3944) was 22.79 mPa·s. For the same compound, the viscosity (318.15 K, x2 = 0.4987) was 14.97 mPa·s, the viscosity (318.15 K, x2 = 0.5995) was 9.88 mPa·s and the viscosity (318.15 K, x2 = 0.6985) was 6.34 mPa·s. It also gave a viscosity (318.15 K, x2 = 0.8009) of 3.71 mPa·s, a viscosity (318.15 K, x2 = 0.8988) of 1.89 mPa·s and a viscosity (323.15 K, x2 = 0) of 92.3 mPa·s. The viscosity (323.15 K, x2 = 0.0939) was 63.3 mPa·s, the viscosity (323.15 K, x2 = 0.1932) was 42.8 mPa·s and the viscosity (323.15 K, x2 = 0.2833) was 29.65 mPa·s. For the same compound, the viscosity (323.15 K, x2 = 0.3944) was 19.32 mPa·s, the viscosity (323.15 K, x2 = 0.4987) was 12.87 mPa·s and the viscosity (323.15 K, x2 = 0.5995) was 8.58 mPa·s. The viscosity (323.15 K, x2 = 0.6985) was 5.55 mPa·s, the viscosity (323.15 K, x2 = 0.8009) was 3.29 mPa·s and the viscosity (323.15 K, x2 = 0.8988) was 1.69 mPa·s. For the same compound, the viscosity (333.15 K, x2 = 0) was 60.4 mPa·s, the viscosity (333.15 K, x2 = 0.2833) was 21.37 mPa·s and the viscosity (333.15 K, x2 = 0.3944) was 14.38 mPa·s. It also gave a viscosity (333.15 K, x2 = 0.4987) of 9.78 mPa·s, a viscosity (333.15 K, x2 = 0.8009) of 2.62 mPa·s and a viscosity (333.15 K, x2 = 0.8988) of 1.39 mPa·s. It also gave a viscosity (343.15 K, x2 = 0) of 40.7 mPa·s, a viscosity (343.15 K, x2 = 0.1932) of 21.84 mPa·s and a viscosity (343.15 K, x2 = 0.2833) of 16.02 mPa·s. For the same compound, the viscosity (343.15 K, x2 = 0.3944) was 11.04 mPa·s, the viscosity (343.15 K, x2 = 0.4987) was 7.66 mPa·s and the viscosity (343.15 K, x2 = 0.5995) was 5.3 mPa·s. For the same compound, the viscosity (343.15 K, x2 = 0.6985) was 3.53 mPa·s, the viscosity (343.15 K, x2 = 0.8009) was 2.15 mPa·s and the viscosity (343.15 K, x2 = 0.8988) was 1.16 mPa·s.
